Measured values as given in publication PMC3039446 (Cancer research, 2010).
Entries after “also recorded” stand apart in the source; their conditions may differ. Where two headings read alike, the source gives them in different places. Marks after values point to notes of the source that are not given here.

Experiments:
[1] = system: PPC-1; test: SRB cytotoxicity assay, PPC-1; format: cell-based, human
[2] = system: OVCAR-8; test: SRB cytotoxicity assay, OVCAR-8; format: cell-based, human
[3] = Pharmacokinetic study in Sprague-Dawley rats, i.v.; conditions: 2.5 mg/kg i.v.
[4] = system: B16-F1; conditions: read-out: IC50 ± SEM; B16-F1 melanoma, SRB; previously reported ref 11; cited from earlier work
[5] = system: LNCaP; conditions: read-out: IC50 ± SEM; LNCaP prostate, SRB; previously reported ref 11; cited from earlier work
[6] = system: ICR mice; test: Acute toxicity study in ICR mice; format: in vivo; conditions: 4 consecutive days of intraperitoneal dosing
[7] = system: PC-3; conditions: read-out: IC50 ± SEM; PC-3 prostate, SRB; previously reported ref 11; cited from earlier work
[8] = system: Bovine brain tubulin; test: In vitro microtubule; format: biochemical; conditions: 10 μM compound, absorbance 340 nm, 15 min
[9] = rat, in vivo, iv, 2.5 mg/kg
[10] = system: PC-3 prostate tumor xenograft; conditions: for %T/C values (range): both PC-3 and A375 xenograft models, doses 5 to 20 mg/kg
[11] = system: A375 melanoma xenograft; conditions: 34 days; for % T/C: A375 melanoma xenograft; for Tumor volume at end of treatment: A375 xenograft, control 2183 ± 279
[12] = Pharmacokinetic study in ICR mice, i.v.; conditions: 15 mg/kg i.v.
[13] = system: A375; conditions: read-out: IC50 ± SEM; A375 melanoma, SRB; previously reported ref 11; cited from earlier work
[14] = system: ICR mice; test: Rotarod test
[15] = system: Du-145; conditions: read-out: IC50 ± SEM; Du-145 prostate, SRB; previously reported ref 11; cited from earlier work
[16] = system: PPC-1; conditions: read-out: IC50 ± SEM; PPC-1 prostate, SRB; previously reported ref 11; cited from earlier work
[17] = cited from earlier work
[18] = system: ICR mice; conditions: mouse, 15 mg/kg
[19] = system: PC-3 cells; format: cell-based, human
[20] = mice, 15 mg/kg i.v.; ref C. M. Li et al, in press; cited from earlier work
[21] = system: tubulin; test: MS competitive binding assay on tubulin binding sites
[22] = system: Du-145; test: SRB cytotoxicity assay, Du-145; format: cell-based, human
[23] = system: A375; test: SRB cytotoxicity assay, A375; format: cell-based, human
[24] = system: NCI/ADR-RES; test: SRB cytotoxicity assay, NCI/ADR-RES; format: cell-based, human
[25] = system: PC-3 and A375 cells; test: Apoptosis detection by ELISA; format: cell-based, human; conditions: 24 h treatment
[26] = system: B16-F1; test: SRB cytotoxicity assay, B16-F1; format: cell-based
[27] = system: PC-3; test: SRB cytotoxicity assay, PC-3; format: cell-based, human
[28] = system: prostate cancer and melanoma cell lines; test: SRB antiproliferative assay, ranges over the cell line panel; format: cell-based, human; conditions: read-out: IC50 (range over cell lines), Table 1 cell lines
[29] = system: LNCaP; test: SRB cytotoxicity assay, LNCaP; format: cell-based, human; conditions: read-out: IC50 ± SEM
[30] = Homo sapiens, PPC-1, read-out: IC50 ± SEM
[31] = PC-3 xenograft, 5 mg/kg, start 150 mm^3, control 680 ± 198
[32] = PC-3 xenograft, 15 mg/kg, start 150 mm^3, control 680 ± 198
[33] = read-out: IC50 ± SEM, OVCAR-8 ovarian (parent), SRB, n = 3

## CC(=O)O[C@H]1C(=O)[C@@]2(C)[C@H]([C@H](OC(=O)c3ccccc3)[C@]3(O)C[C@H](OC(=O)[C@H](O)[C@@H](NC(=O)c4ccccc4)c4ccccc4)C(C)=C1C3(C)C)[C@]1(OC(C)=O)CO[C@@H]1C[C@@H]2O [Paclitaxel]
[1]; [30]
  IC50: 2.3 ± 0.8 nM
[2]; Homo sapiens, OVCAR-8, read-out: IC50 ± SEM
  IC50: 4.7 ± 0.1 nM

## COc1cc(C(=O)c2csc(-c3ccc(F)cc3)n2)cc(OC)c1OC [SMART-F]
[3]
  t1/2: 40.17 h
[4]
  IC50: 43 ± 21 nM
[5]
  IC50: 6 ± 1 nM
[6]
  Doses that did not cause greater than 10% loss of body weight: ≤ 15 mg/kg
[7]
  IC50: 13 ± 1 nM
[8]
  Inhibition of tubulin polymerization: 90%
[9]
  AUC: 1600 ng·h/mL
  CL: 11 mL/min/kg
  Vss: 34 L/kg
[10]; [31]
  Tumor volume by day 21: 269 ± 177 mm^3
[10]; [32]
  Tumor volume by day 21: 292 ± 103 mm^3
[10]
  %T/C values (range): 4–30%
[11]; 15 mg/kg i.p. daily, 15 mg/kg
  % T/C: 29%
[11]; 15 mg/kg
  Tumor volume at end of treatment: 722 ± 135 mm^3
[12]
  t1/2: 2.35 h
[13]
  IC50: 33 ± 14 nM
[2]; [33]
  IC50: 34 ± 3 nM

## COc1cc(C(=O)c2csc(-c3ccccc3)n2)cc(OC)c1OC [SMART-H]
[14]; 5 or 15 mg/kg i.p. daily, to day 31
  Rotarod performance (time on rotating rod) vs vehicle: no significant difference; also recorded: did not show significant impairment in motor coordination
[4]
  IC50: 55 ± 5 nM
[5]
  IC50: 28 ± 4 nM
[6]
  Doses that did not cause greater than 10% loss of body weight: up to 30 mg/kg
[15]
  IC50: 71 ± 4 nM
[16]
  IC50: 43 ± 5 nM
[7]
  IC50: 21 ± 1 nM
[17]; rat, in vivo, iv, 2.5 mg/kg
  AUC: 5.8 ^a hr * μg/mL
  CL: 6 ^a mL/min/kg
  Vss: 7.6 ^a L/kg
[17]; rats, 2.5 mg/kg i.v., ref C. M. Li et al, in press
  t1/2: 1431 ^a min
[18]
  Neurotoxicity in vivo: failed to produce any apparent neurotoxicity
[8]
  Inhibition of tubulin polymerization: 90%
[19]; PC-3 cells from ATCC (in vitro control)
  IC50: 29.1 ± 1.1 nM
[19]; dissociated cells from SMART-H (15 mg/kg, 21 days) treated PC-3 tumors
  IC50: 30.4 ± 0.5 nM
[19]; dissociated cells from vehicle treated PC-3 tumors, 21 days
  IC50: 29.1 ± 0.8 nM
[10]; [31]
  Tumor volume by day 21: 370 ± 103 mm^3
[10]; [32]
  Tumor volume by day 21: 176 ± 112 mm^3
[10]
  %T/C values (range): 4–30%
[11]; 20 mg/kg i.p. daily, 20 mg/kg
  % T/C: 28%
[11]; 20 mg/kg
  Tumor volume at end of treatment: 775 ± 107 mm^3
[13]
  IC50: 28 ± 5 nM
[20]
  t1/2: 140 ^a min
[21]
  Competition with colchicine binding to tubulin: specifically competed with colchicine binding to tubulin
  Competition with paclitaxel binding to tubulin: did not compete
  Competition with vinblastine binding to tubulin: did not compete
[2]; [33]
  IC50: 35 ± 2 nM

## COc1cc(C(=O)c2csc(-c3ccc(O)cc3)n2)cc(OC)c1OC [SMART-OH]
[22]; read-out: IC50 ± SEM, Du-145 prostate, SRB, n = 3
  IC50: 116 ± 14 nM
[1]; read-out: IC50 ± SEM, PPC-1 prostate, SRB, n = 3
  IC50: 76 ± 2 nM
[8]
  Inhibition of tubulin polymerization: 55%
[23]; read-out: IC50 ± SEM, A375 melanoma, SRB, n = 3
  IC50: 93 ± 11 nM
[24]; NCI/ADR-RES relative to OVCAR-8
  Resistance Factor: 0.4
[24]; read-out: IC50 ± SEM, NCI/ADR-RES ovarian (P-gp over-expressing), SRB, n = 3
  IC50: 45 ± 5 nM
[25]
  Concentration inducing apoptosis (cytoplasmic DNA-histone complexes): ≥ 200 nM
[26]; read-out: IC50 ± SEM, B16-F1 melanoma, SRB, n = 3
  IC50: 113 ± 6 nM
[10]; PC-3 xenograft model, SMART-OH at higher dosage
  Potency relative to SMART-H (fold less): 10 fold
[10]; PC-3 xenograft, 50 mg/kg, start 150 mm^3, control 680 ± 198
  Tumor volume at day 21: 331 ± 130 mm^3
[27]; read-out: IC50 ± SEM, PC-3 prostate, SRB, n = 3
  IC50: 87 ± 5 nM
[28]
  IC50: 76 to 116 nM
[29]; LNCaP prostate, SRB, n = 3
  IC50: 103 ± 9 nM
[2]; [33]
  IC50: 110 ± 8 nM

## CC[C@]1(O)C[C@@H]2CN(CCc3c([nH]c4ccccc34)[C@@](C(=O)OC)(c3cc4c(cc3OC)N(C)[C@H]3[C@@](O)(C(=O)OC)[C@H](OC(C)=O)[C@]5(CC)C=CCN6CC[C@]43[C@@H]65)C2)C1 [Vinblastine]
[14]; 0.5 mg/kg i.p. daily, to day 31, 0.5 mg/kg
  Rotarod performance (time on rotating rod) vs vehicle: gradually reduced the time (in seconds) that the mice could stay on the rotating rod, and attained significance by days 27 and 31; also recorded: lesser ability to stay on the rotating rod
[14]; 4 weeks after drug treatment was stopped
  Rotarod post-observation after treatment stopped: failed to return to baseline
[22]; Homo sapiens, DU-145, read-out: IC50 ± SEM
  IC50: 1.8 ± 1.1 nM
[1]; [30]
  IC50: 1.1 ± 0.4 nM
[23]; Homo sapiens, A-375, read-out: IC50 ± SEM
  IC50: 1.1 ± 0.2 nM
[26]; Mus musculus, B16-F1, read-out: IC50 ± SEM
  IC50: 4.7 ± 0.7 nM
[27]; Homo sapiens, PC-3, read-out: IC50 ± SEM
  IC50: 2.1 ± 0.2 nM
[29]; Homo sapiens, LNCaP
  IC50: 1.1 ± 0.1 nM
